Measured values: patent publication US11180504B2 (ORCHID PHARMA LTD., priority 2016, dated 2021)
In brackets after ≈: the same amount, converted by molar mass. Where two headings read alike, the source gives them in different places.

How the values were obtained:
[1] = system: methicillin-sensitive Staphylococcus aureus; assay: MIC by broth micro-dilution (CLSI), methicillin-sensitive S. aureus; type: cell-based; settings: Staphylococcus aureus, ATCC 29213 / MSSA
[2] = system: carbapenem sensitive Escherichia coli; assay: MIC by broth micro-dilution (CLSI), carbapenem sensitive E. coli; type: cell-based; settings: Escherichia coli
[3] = system: extended spectrum β lactamase (ESBL) SHV18 producing Klebsiella pneumoniae; assay: MIC by broth micro-dilution (CLSI), ESBL SHV18 producing K. pneumoniae; type: cell-based; settings: Klebsiella pneumoniae, ATCC700603, 22 h
[4] = system: carbapenemase producing K. pneumoniae; assay: MIC by broth micro-dilution (CLSI), carbapenemase producing K. pneumoniae; type: cell-based, Klebsiella pneumoniae; settings: Klebsiella pneumoniae
[5] = system: carbapenem sensitive Pseudomonas aeruginosa; assay: MIC by broth micro-dilution (CLSI), carbapenem sensitive P. aeruginosa; type: cell-based; settings: Pseudomonas aeruginosa
[6] = MSSA S. aureus ATCC29213, read-out: MIC
[7] = ATCC25922, ESBL −ve E. coli ATCC25922, read-out: MIC
[8] = ESBL +ve (SHV-18) K. pneumoniae ATCC700603, read-out: MIC
[9] = ATCCBAA1705, KPC-2 K. pneumoniae ATCC BAA-1705, read-out: MIC
[10] = ATCC27853, Meropenem susceptible P. aeruginosa ATCC27853, read-out: MIC

Row | MIC [1, 6] | MIC [2, 7] | MIC [3, 8] | MIC [4, 9] | MIC [5, 10] | SMILES | MIC [1] | MIC ([2]; ATCC25922) | MIC [3] | MIC ([4]; ATCCBAA1705) | MIC ([5]; ATCC27853)
1 | 4 to 8 µg/mL (≈ 7.96 to 15.9 µM) | 0.5 to 1 µg/mL (≈ 0.995 to 1.99 µM) | 1 µg/mL (≈ 1.99 µM) | 4 µg/mL (≈ 7.96 µM) | 32 to 64 µg/mL (≈ 63.7 to 127 µM) | C[C@@H](NC(=O)C(F)F)[C@H]1C(=O)N2C(C(=O)O)=C(S[C@@H]3CN[C@H](C(=O)N4CC[C@H](O)C4)C3)[C@H](C)[C@H]12 [Example 77] |  |  |  |  | 
2 | 8 µg/mL (≈ 15.9 µM) | 1 µg/mL (≈ 1.99 µM) | 2 µg/mL (≈ 3.98 µM) | > 128 µg/mL | 128 µg/mL (≈ 255 µM) | C[C@@H](NC(=O)CS(C)(=O)=O)[C@H]1C(=O)N2C(C(=O)O)=C(S[C@@H]3CN[C@H](C(=O)N(C)C)C3)[C@H](C)[C@H]12 [Example 78] |  |  |  |  | 
3 | 4 µg/mL (≈ 8.02 µM) | 32 µg/mL (≈ 64.2 µM) | > 128 µg/mL | > 128 µg/mL | > 128 µg/mL | CC(C)C[C@@H](F)C(=O)N[C@H](C)[C@H]1C(=O)N2C(C(=O)O)=C(S[C@@H]3CN[C@H](C(=O)N(C)C)C3)[C@H](C)[C@H]12 [Example 79] |  |  |  |  | 
4 | 4 µg/mL | 4 µg/mL | 32 µg/mL | 64 µg/mL | > 128 µg/mL | C[C@@H](NC(=O)C(F)F)[C@H]1C(=O)N2C(C(=O)O)=C(S[C@@H]3CNC(C[N+]4(C)CCCC4)C3)[C@H](C)[C@H]12 (some centres unmarked) [Example 80] |  |  |  |  | 
5 | 1 µg/mL (≈ 2.12 µM) | 1 µg/mL (≈ 2.12 µM) | 8 µg/mL (≈ 16.9 µM) | 8 µg/mL (≈ 16.9 µM) | 64 µg/mL (≈ 135 µM) | C[C@@H](NC(=O)C(F)F)[C@H]1C(=O)N2C(C(=O)O)=C(S[C@@H]3CNC(CN4CCCC4)C3)[C@H](C)[C@H]12 (some centres unmarked) [Example 81] |  |  |  |  | 
6 | 2 µg/mL (≈ 3.87 µM) | 64 µg/mL (≈ 124 µM) | > 128 µg/mL | > 128 µg/mL | > 128 µg/mL | CC(C)CC(F)(F)C(=O)N[C@H](C)[C@H]1C(=O)N2C(C(=O)O)=C(S[C@@H]3CN[C@H](C(=O)N(C)C)C3)[C@H](C)[C@H]12 [Example 83] |  |  |  |  | 
7 | 1 µg/mL (≈ 2.01 µM) | 0.5 µg/mL (≈ 1.01 µM) | 2 µg/mL (≈ 4.03 µM) | 2 µg/mL (≈ 4.03 µM) | 64 µg/mL (≈ 129 µM) | C[C@@H](NC(=O)C(F)F)[C@H]1C(=O)N2C(C(=O)O)=C(S[C@@H]3CN[C@H](CNS(C)(=O)=O)C3)[C@H](C)[C@H]12 [Example 85] |  |  |  |  | 
8 | 2 µg/mL (≈ 3.78 µM) | 1 µg/mL (≈ 1.89 µM) | 8 µg/mL (≈ 15.1 µM) | 8 µg/mL (≈ 15.1 µM) | 128 µg/mL (≈ 242 µM) | C[C@@H](NS(=O)(=O)CC(F)(F)F)[C@H]1C(=O)N2C(C(=O)O)=C(S[C@@H]3CN[C@H](C(=O)N(C)C)C3)[C@H](C)[C@H]12 [Example 86] |  |  |  |  | 
9 | 2 µg/mL (≈ 3.78 µM) | 1 µg/mL (≈ 1.89 µM) | 8 µg/mL (≈ 15.1 µM) | 8 µg/mL (≈ 15.1 µM) | 64 µg/mL (≈ 121 µM) | C[C@@H](NC(=O)C(F)(F)C(F)(F)F)[C@H]1C(=O)N2C(C(=O)O)=C(S[C@@H]3CN[C@H](C(=O)N(C)C)C3)[C@H](C)[C@H]12 [Example 87] |  |  |  |  | 
10 | 0.25 µg/mL (≈ 0.52 µM) | 128 µg/mL (≈ 266 µM) | > 128 µg/mL | > 128 µg/mL | > 128 µg/mL | C[C@@H](NC(=O)C(F)F)[C@H]1C(=O)N2C(C(=O)O)=C(Sc3nc(-c4ccncc4)cs3)[C@H](C)[C@H]12 [Example 88] |  |  |  |  | 
11 | 0.5 µg/mL (≈ 1.02 µM) | 0.5 µg/mL (≈ 1.02 µM) | 8 µg/mL (≈ 16.3 µM) | 4 µg/mL (≈ 8.17 µM) | 128 µg/mL (≈ 261 µM) | C[C@@H](NC(=O)C(F)F)[C@H]1C(=O)N2C(C(=O)O)=C(S[C@@H]3CN[C@H](CNC(=O)N(C)C)C3)[C@H](C)[C@H]12 [Example 89] |  |  |  |  | 
12 | 1 µg/mL (≈ 2.05 µM) | 1 µg/mL (≈ 2.05 µM) | 32 µg/mL (≈ 65.5 µM) | 4 µg/mL (≈ 8.19 µM) | 128 µg/mL (≈ 262 µM) | C[C@@H](NC(=O)C(F)F)[C@H]1C(=O)N2C(C(=O)O)=C(S[C@@H]3CN[C@H](CN4CCOCC4)C3)[C@H](C)[C@H]12 [Example 90] |  |  |  |  | 
13 |  |  |  |  |  | COP(=O)(CC(=O)N[C@H](C)[C@H]1C(=O)N2C(C(=O)O)=C(S[C@@H]3CN[C@H](C(=O)N(C)C)C3)[C@H](C)[C@H]12)OC [Example 91] | 16 µg/mL (≈ 30 µM) | 4 µg/mL (≈ 7.51 µM) | 32 µg/mL (≈ 60.1 µM) | 32 µg/mL (≈ 60.1 µM) | > 128 µg/mL
14 | 1 µg/mL (≈ 2.75 µM) | 0.5 µg/mL (≈ 1.38 µM) | 4 µg/mL (≈ 11 µM) | 4 µg/mL (≈ 11 µM) | 32 µg/mL (≈ 88.1 µM) | C[C@@H](NC(=O)C(F)F)[C@H]1C(=O)N2C(C(=O)O)=C(SCCN)[C@H](C)[C@H]12 [Example 92] |  |  |  |  | 
15 | 16 µg/mL (≈ 34.5 µM) | 128 µg/mL (≈ 276 µM) | > 128 µg/mL | > 128 µg/mL | > 128 µg/mL | C[C@@H](NC(=O)C(F)F)[C@H]1C(=O)N2C(C(=O)O)=C(SCCNC(=O)OC(C)(C)C)[C@H](C)[C@H]12 [Example 93] |  |  |  |  | 
16 | 0.25 µg/mL | 64 µg/mL | > 128 µg/mL | > 128 µg/mL | > 128 µg/mL | C[C@@H](NC(=O)C(F)F)[C@H]1C(=O)N2C(C(=O)O)=C(Sc3nc(-c4cc[n+](C)cc4)cs3)[C@H](C)[C@H]12 [Example 94] |  |  |  |  | 
